Source: paper PMC9271885 (eBioMedicine, 2022)
Several values for one entry are separate records, joined by “and”; a condition that tells them apart may be missing. Equal values may be shown once.

Columns and labels:
SARS-CoV-2 [1] = test: Hamster model of SARS-CoV-2 infection, intranasal NTZ treatment (lung, plasma, nasal turbinates); assay type: in vivo, Syrian hamsters; set-up: Lung Infectious titers / Lung Viral RNA yields / Plasmatic viral RNA yields / Nasal Turbinates Infectious titers / Nasal Turbinates Viral RNA yields: unit not given here
[2] = Clinical course of the disease in infected hamsters (normalized weight, clinical signs); assay type: in vivo, Syrian hamsters
Procedure: Three-week-old female Syrian hamsters were provided by Janvier Labs (SPF status). Animals were maintained in ISOcage P - Bioexclusion System (Techniplast) with unlimited access to water/food and 14h/10h light/dark cycle. A wooden gnawing block and extra bedding material was provided as cage enrichment. Animals were weighed and monitored daily for the duration of the study to detect the appearance of any clinical signs of illness/suffering. General anesthesia was obtained with isoflurane (Isoflurin®, Axience). Euthanasia, which was also realized under general anesthesia, was performed by cervical dislocation.
Groups of 6 hamsters were intranasally infected with 10^4 TCID50 of virus. a Experimental timeline. b, f, j Viral replication in lung based on infectious titers (measured using a TCID50 assay) expressed in TCID50/g of lung (n=6 animals/group). c, g, k Viral replication in lung based on viral RNA yields (measured using an RT-qPCR assay) expressed in viral genome copies/g of lung (n=6 animals/group). d, h, l Plasma viral loads (measured using an RT-qPCR assay) are expressed in viral genome copies/mL of plasma (the dotted line indicates the detection threshold of the assay) (n=6 animals/group). e, i, m Clinical course of the disease (n=6 animals/group). Normalized weight at day n was calculated as follows: % of initial weight of the animal at day n. Data represent mean ± SD (Details in Supplementary Data 2).

SARS-CoV-2 [3] = settings: Vero E6 cells at 48 h post-infection; read-out: 50% effective concentration (EC50); cited from earlier work
Vero E6 cells = test: in vitro; settings: African green monkey, 2 days
Procedure: One day prior to infection, 96-well culture plates were seeded with 5×10^4 Vero E6 or Caco-2 cells in 100µL assay medium per well (containing 2.5% FCS). […] After 15min, a preset amount of virus diluted in 25µL of assay medium was added to the wells. This quantity of virus was calibrated so that the viral replication was still in the exponential growth phase for the readout, as previously described, [28], [29] which correspond here to 150 TCID50 per well. Four “cell control” wells were supplemented with 50µL of assay medium without any compounds or virus. On each culture plate, a positive control compound (Remdesivir, BLDpharm) was added in duplicate with eight 2-fold serial dilutions (0.16µM to 20µM). Plates were incubated for 2 days at 37°C prior to quantification of the viral genome by real-time RT-PCR as described below. For the determination of the 50% cytotoxic concentrations (CC50; compound concentration required to reduce by 50% cell viability), the same culture conditions were used, without addition of the virus, and cell viability was measured using CellTiter Blue® (Promega) following manufacturer's instructions. EC50, EC90 and CC50 were determined using logarithmic interpolation as previously described.[28] The selectivity index of the compounds was calculated as the ratio of the CC50 over the EC50.

[4] = in vivo, cited from earlier work
[5] = NTZ emulsion 2.8mg/kg/day TID intranasal, 3 dpi, first experiment
[6] = Nitazoxanide IN 2.8mg/kg/day TID, inoculum 104 TCID50, sacrifice day 3, Figure 5, individual animals
[7] = Nitazoxanide IN 2.8mg/kg/day TID, inoculum 104 TCID50, sacrifice day 3, Figure SF 2, individual animals
[8] = Nitazoxanide per os 500mg/kg/day BID, inoculum 104 TCID50, sacrifice day 3, Figure 3, individual animals
[9] = Nitazoxanide per os 500mg/kg/day BID, inoculum 104 TCID50, sacrifice day 5, Figure 3, individual animals
[10] = Nitazoxanide per os 750mg/kg/day BID, inoculum 104 TCID50, sacrifice day 3, Figure 3, individual animals

In the case of `CC(=O)Oc1ccccc1C(=O)Nc1ncc([N+](=O)[O-])s1` [NTZ, Nitazoxanide], the “viral replication in clarified lung homogenates, plasma or nasal turbinates vs untreated” value (SARS-CoV-2 [1]; NTZ 2.8mg/kg/day TID intranasal, repeated independent experiment) is reported as “no significant differences”, the “infectious titers in clarified lung homogenates vs untreated” value (SARS-CoV-2 [1]; [5]) is reported as “significant increase” and the “infectious titers in nasal turbinates vs untreated” value (SARS-CoV-2 [1]; [5]) is reported as “no significant differences”. For the same compound, the “viral RNA load in nasal turbinates vs untreated” value (SARS-CoV-2 [1]; [5]) was “significant reduction”, the “viral RNA yields in clarified lung homogenates vs untreated” value (SARS-CoV-2 [1]; [5]) was “No significant differences” and the “viral RNA yields in plasma vs untreated” value (SARS-CoV-2 [1]; [5]) was “No significant differences”. For the same compound, the “Lung Infectious titers” value (SARS-CoV-2 [1]; [6]) was 7.738 and 7.565 and 7.260 and 7.126 and 7.436 and 7.154, the “Lung Viral RNA yields” value (SARS-CoV-2 [1]; [6]) was 8.897 and 8.809 and 8.599 and the “Nasal Turbinates Infectious titers” value (SARS-CoV-2 [1]; [6]) was 2.483 and 2.551 and 3.472 and 4.082 and 3.115 and 4.229. For the same compound, the “Nasal Turbinates Viral RNA yields” value (SARS-CoV-2 [1]; [6]) was 4.363 and 4.565 and 5.134 and 5.523 and 5.262 and 5.603, the “Plasmatic viral RNA yields” value (SARS-CoV-2 [1]; [6]) was 3.551 and 4.595 and 4.938 and 4.386 and 5.492 and 4.672 and the “Lung Infectious titers” value (SARS-CoV-2 [1]; [7]) was 6.420 and 6.814 and 6.658 and 6.401 and 6.100 and 6.859. For the same compound, the “Lung Viral RNA yields” value (SARS-CoV-2 [1]; [7]) was 7.102 and 7.087, the “Nasal Turbinates Infectious titers” value (SARS-CoV-2 [1]; [7]) was 3.220 and 2.494 and 2.987 and 4.228 and 2.922 and 3.399 and the “Nasal Turbinates Viral RNA yields” value (SARS-CoV-2 [1]; [7]) was 5.240 and 5.486 and 5.403 and 6.486 and 5.764 and 5.350. The “mean normalized weight vs untreated animals” value ([2]; NTZ 2.8mg/kg/day TID intranasal, 1 to 3 dpi, first experiment) was “significantly lower than that of untreated animals”, the “mean normalized weight vs untreated animals” value ([2]; NTZ 2.8mg/kg/day TID intranasal, 1 to 3 dpi, repeated experiment) was “significantly lower than that of untreated animals” and the “mean normalized weight vs untreated animals” value ([2]; NTZ 500mg/kg/day BID oral for 3 days, at 3 dpi) was “significantly lower than that of untreated animals”. For the same compound, the “clinical signs of illness/suffering compared to untreated animals” value ([2]; NTZ 500mg/kg/day BID oral for 4 days, followed to 5 dpi) was “did not show any clinical signs of illness/suffering”, the “mean normalized weight vs untreated animals” value ([2]; NTZ 750mg/kg/day TID oral for 3 days, at 2 dpi) was “significantly lower than that of untreated animals” and the “Normalized weights Day 0” value [2, 6] was 100. For the same compound, the “Normalized weights Day 1” value [2, 6] was 90.2 and 91.4 and 94.7 and 92.3 and 86.3 and 91.5, the “Normalized weights Day 2” value [2, 6] was 81.4 and 83.1 and 86.9 and 88.1 and 80.0 and 82.4 and the “Normalized weights Day 3” value [2, 6] was 70.4. For the same compound, the “Normalized weights Day 0” value [2, 7] was 100, the “Normalized weights Day 1” value [2, 7] was 92.6 and 97.1 and 95.9 and 101.1 and 97.4 and 94.0 and the “Normalized weights Day 2” value [2, 7] was 84.7 and 91.2 and 89.0 and 92.2 and 87.0 and 85.8. For the same compound, the “Normalized weights Day 0” value [2, 8] was 100, the “Normalized weights Day 1” value [2, 8] was 103.3 and 103.7 and 101.9 and 97.1 and 103.5 and 104.5 and the “Normalized weights Day 2” value [2, 8] was 100.2 and 95.2 and 98.6 and 92.0 and 97.9 and 99.6. The “Normalized weights Day 3” value [2, 8] was 97.9 and 94.1 and 93.4 and 93.2, the “Normalized weights Day 0” value [2, 9] was 100 and the “Normalized weights Day 1” value [2, 9] was 103.8 and 103.9 and 104.9 and 104.4 and 104.6 and 102.8. The “Normalized weights Day 2” value [2, 9] was 96.9 and 95.0 and 102.9 and 95.3 and 100.2, the “Normalized weights Day 3” value [2, 9] was 96.2 and 96.1 and the “Normalized weights Day 4” value [2, 9] was 83.8. For the same compound, the “Normalized weights Day 5” value [2, 9] was 98.6 and 90.9 and 91.2 and 79.5 and 92.9, the “Normalized weights Day 0” value [2, 10] was 100 and the “Normalized weights Day 1” value [2, 10] was 102.2 and 103.1 and 105.8 and 99.4 and 106.0 and 101.2. For the same compound, the “Normalized weights Day 2” value [2, 10] was 95.2 and 96.5 and 95.6 and 90.1 and 90.2, the “Normalized weights Day 3” value [2, 10] was 92.7 and the “mean normalized weight vs untreated animals” value ([2]; histopathology experiment, NTZ 500mg/kg/day BID oral, at 3 dpi) was “significantly lower than that of untreated animals”. For the same compound, the “Normalized weights Day 0” value ([2]; infected hamsters, nitazoxanide 500mg/kg/day per os BID, Day 0, individual animals) was 100, the “Normalized weights Day 1” value ([2]; infected hamsters, nitazoxanide 500mg/kg/day per os BID, Day 1, individual animals) was 100.5 and 102.7 and 103.7 and 103.5 and the “Normalized weights Day 2” value ([2]; infected hamsters, nitazoxanide 500mg/kg/day per os BID, Day 2, individual animals) was 94.1 and 99.3 and 98.2. The “Normalized weights Day 3” value ([2]; infected hamsters, nitazoxanide 500mg/kg/day per os BID, Day 3, individual animals) was 92.9 and 96.2, the “Normalized weights Day 4” value ([2]; infected hamsters, nitazoxanide 500mg/kg/day per os BID, Day 4, individual animals) was 86.9 and the “Normalized weights Day 5” value ([2]; infected hamsters, nitazoxanide 500mg/kg/day per os BID, Day 5, individual animals) was 90.1 and 88.3 and 85.4 and 93.9. The EC50 (SARS-CoV-2 [3]) was 2120 nM.
In the case of `O=C(Nc1ncc([N+](=O)[O-])s1)c1ccccc1O` [TIZ, tizoxanide], the CC50 (Vero E6 cells) is listed as > 100000 nM, the Tmax ([4]; human) is listed as “approximately 2 hours” and the apparent clearance [4] is listed as 19.34 L/h. The volume of distribution [4] was 38.68 L.
